According to patent publication US20240285808A1, “MOLECULAR PROBES FOR IN VIVO DETECTION OF ALDEHYDES” (The General Hospital Corporation, priority 2021, published 2024):

What was measured:
[1] = system: PDAC6 xenograft tumor; assay: MR imaging of PDAC6 tumor xenograft model; format: in vivo, mouse; details: 60 min post injection
Method: Male NU(NCr)-Foxn1nu nude mice at 6-8 weeks of age were provided by Charles River Labs, Wilmington, MA. A total of 1×10^7 patient derived metastatic pancreatic cancer cells (PDAC6) were injected into the subcutaneous space of the right lower back of the mice (n=4 per group). Mice were imaged with Mn-17 (100 μmol/kg) 4 weeks after implanting the tumor for pretreatment imaging, and another group of mice were imaged 3-days post treatment with FOLFIRINOX (Folinate 50 mg/kg, Oxaliplaton 2.5 mg/kg, Irinotecan 25 mg/kg, Fluorouracil 25 mg/kg).
For PDAC6 xenograft tumor imaging, images were acquired with following sequences and parameters: 3D T1 weighted FLASH (TR/TE/FA=14 ms/[…]/30°, 0.4 mm isotropic spatial resolution, field of view (FOV) 35 mm×35 mm, two average, acquisition time=4.3 min) images were acquired prior to and dynamically post injection of contrast agent; 3D RARE (RARE, TR/TE/FA=[…]/57 ms/180°, 0.3 mm isotropic spatial resolution, field of view (FOV) 35 mm×60 mm, one average, acquisition time=8.1 min) image was also acquired.
For tumor imaging analysis, RARE image and first FLASH image post-contrast were used to define volumetric region of interest (ROIs) in the tumor that excluded necrosis region. ΔCNR was calculated by eq 22.

[2] = system: ECM proteins from fibrotic rat liver; assay: Relaxivity measurements in ECM; format: binding; details: for relaxivity in ECM: PBS, pH 7.4, 2 h, 37° C., 1.41T; for relaxivity in ECM with 100-fold excess of hydrazine: aldehydes blocked with N2H4
Method: Liver fibrosis was induced in male Sprague Dawley rats by ligation of the common bile duct (CD®, Charles River Labs, Wilmington, MA). Ten days after common bile duct ligation, the fibrotic liver was harvested and sequential extractions were performed using the CNMCS (Cytosol/Nucleus/Membrane/Cytoskeleton) Compartmental Protein Extraction kit (Cytomol, Union City, CA) according to manufacturer's instructions. In brief, frozen tissues (150-200 mg) were homogenized and with solvents provided in the kit to sequentially to remove: cytosolic proteins, nuclear proteins, membrane proteins, and cytoskeletal proteins, leaving a final insoluble fraction enriched for ECM proteins.
Relaxivity Measurements in ECM
The enriched ECM proteins from 800 mg of fibrotic rat liver were suspended in 1 ml PBS. The ECM protein concentration was about 10% (5 mg in a 50 μL aliquot determined by weight after lyophilization). An aliquot of the solution (50 μL) was treated for 2 h at 37° C. with the corresponding molecular probe at a range of concentrations (0.01-0.1 mM) and then longitudinal (T1) relaxation measurements was recorded using a Bruker mq60 Minispec at 1.41 T and 37° C. For the blocking experiment with N2H4, a 100 fold-excess of N2H4 referred to the concentration of molecular probe was added to the solution before the incubation. Longitudinal (T1) relaxation times were measured via an inversion recovery experiment using 10 inversions of duration ranging between 0.05×T1 and 10×T1. Relaxivity (r1) was determined from the slope of a plot of 1/T1 vs metal concentration for 4 concentrations.

[3] = Reaction rates with butyraldehyde measured by HPLC-ICP-MS (Method B); format: physicochemical; details: Method b: butyraldehyde 100 μM, probe 25 μM, pH 7.40
Method: Method B: Reaction Rates of Compounds with Butyraldehyde Measured by HPLC-ICP-MS
The reactions were conducted in pH 7.40 phosphate-buffered with butyraldehyde concentration of 100 μM and hydrazine probes at 25 μM. Concentrations of unreacted starting material and condensation products were determined at 10 min time intervals over 2 hours based on their relative integrations. The values were fit to a standard first order rate constant linear equation and the rate constant was extracted from the slope.
Reaction with Butyraldehyde Monitored by HPLC-ICP-MS
Reactions were conducted in pH 7.4 phosphate-buffered saline with butyraldehyde concentration of 100 μM and hydrazine probes at 25 μM. Concentrations of unreacted starting material and condensation products were determined based on their relative integrations at 12 min time intervals over 2 hours.

[4] = Stability of compounds in human plasma; format: in vitro ADME; details: 37° C., 2 or 3 hours
Method: Stability of Compounds in Human Plasma:
A 16 μL aliquot of the Gd or Mn complex (1.0 mM) was added to 500 μL of human plasma (Lampire Biological laboratories). The solution was then incubated for 2 or 3 hours at 37° C. Aliquots (50 μL) were removed at 1, 2 or 3 hours. Proteins were precipitated by the addition of 150 μL of acetonitrile and removed following centrifugation. The supernatant was then analyzed using HPLC-ICP-MS. No unchelated gadolinium was observed nor the appearance of any new Gd/Mn-containing species.

[5] = target: T1, BSA-ALD (Bos taurus, UniProt P02769); assay: Binding yield measurements of Gd^3+ complex with BSA^Ald (ultrafiltration, ICP-MS); design: species or system bovine; details: pH 7.4, PBS, 37° C., 12 h, ultrafiltration 5,000 Da cut-off
T1 construct: made in house; host or cells: no expression host: BSA oxidised chemically with sodium ascorbate, ferric chloride and H2O2, then desalted on PD-10
T1 sequence (P02769 25-607): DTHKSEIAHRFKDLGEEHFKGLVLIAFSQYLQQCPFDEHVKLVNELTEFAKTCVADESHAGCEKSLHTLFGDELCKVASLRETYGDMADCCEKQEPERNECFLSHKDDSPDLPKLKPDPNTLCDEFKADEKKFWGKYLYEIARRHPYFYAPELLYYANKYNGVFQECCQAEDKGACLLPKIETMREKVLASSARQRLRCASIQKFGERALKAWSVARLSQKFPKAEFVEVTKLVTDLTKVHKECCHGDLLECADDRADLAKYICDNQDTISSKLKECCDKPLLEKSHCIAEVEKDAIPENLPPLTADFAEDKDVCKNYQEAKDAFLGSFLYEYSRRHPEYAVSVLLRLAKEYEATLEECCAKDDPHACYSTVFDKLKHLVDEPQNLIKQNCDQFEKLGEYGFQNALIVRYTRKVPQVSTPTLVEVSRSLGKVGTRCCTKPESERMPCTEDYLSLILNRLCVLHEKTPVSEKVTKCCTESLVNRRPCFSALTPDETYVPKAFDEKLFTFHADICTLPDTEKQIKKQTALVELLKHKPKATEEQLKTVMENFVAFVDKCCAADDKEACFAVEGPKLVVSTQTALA
Method: FIG. 48. […] Binding concentration of the probes to BSA^Ald (pH 7.4, PBS, 37° C., 12 h) as determined by ICP-MS following an ultrafiltration (5,000 Da cut-off) to separate the protein-bound probe from the unbound probe. Slope gives the binding yield.
Alternatively, preparation of BSA^Ald and binding of Gd^3+ probe to protein was carried out according to modified procedures. To a solution of bovine serum albumin (BSA) (100 mg) dissolved in phosphate buffered saline (4 mL, pH 7.4, 0.25 mM) was added sodium ascorbate (20 mg), ferric chloride (120 μL, 10 mM) and 20 μL H2O2 (30% w). The reaction was stirred at 37° C. for 24 h, and sodium ascorbate (20 mg) was added repeatedly every 8 h. After 24 h, the protein was purified using PD-10 Sephadex G25 desalting columns (GE Healthcare), eluted with PBS. Protein concentration was assessed using the ‘Micro BCA Protein Assay Kit’ (Thermo Scientific, 23235). Protein carbonyl concentration was determined by ‘Protein Carbonyl Content Assay Kit’ (Sigma-Aldrich, MAK094-1KT). […] The protein solutions were kept at a concentration of 20 mg/mL for further use.

[6] = target: T1, BSA-ALD; assay: On/off rate with oxidized BSA-ALD; format: binding, bovine; details: for fold higher initial on rate / reactivity with BSA-Ald compared to Gd-CHyd: BSA-Ald 10 mg/mL in PBS
Method: On Off Rate with Oxidized BSA-ALD:
BSA-ALD (10 mg/mL) was incubated with 200 μM corresponding Gd or Mn complex at 37° C. in pH 7.4 PBS), with a total volume of 300 μL. The dynamic longitudinal (T1) relaxation time were measured using a Bruker mq60 Minispec at 1.41 T and 37° C. After 24 hours, protein-bound and protein-free solutions were separated by ultrafiltration. Then 200 μL PBS was added to the residue to dissolve the protein bound species. The change of longitudinal (T1) relaxation time was then measured in Bruker mq60 Minispec at 1.41 T and 37° C.

[7] = 3-days post treatment (FOLFIRINOX)

Compound | ΔCNR of PDAC6 xenograft tumor [1, 7] | ΔCNR of PDAC6 xenograft tumor ([1]; Pre-treatment) | relaxivity in ECM [2] [mM⁻¹ s⁻¹] | relaxivity in ECM with 100-fold excess of hydrazine [2] [mM⁻¹ s⁻¹] | k (second order rate constant) [3] [M⁻¹ s⁻¹] | stability in human plasma (HPLC-ICP-MS) [4] | equilibrium binding to BSA^Ald (binding yield) [5] [%] | fold higher initial on rate / reactivity with BSA-Ald compared to Gd-CHyd [6] [fold] | faster on-rate than monobinder Gd-CHyd [6] [%] | fold slower off-rate than Gd-CHyd [6] [fold] | slower off-rate than monobinder Gd-CHyd [6] [%]
NNCC(=O)NCCCN1CCN(CC(=O)[O-])Cc2cccc(n2)CN(CC(=O)[O-])CC1.[Mn+2] [Mn-17] | 6.4 ± 1.2 | 4.6 ± 1.0 |  |  |  |  |  |  |  |  | 
NN1CCN(C(=O)CCC(C(=O)[O-])N2CCN(CC(=O)[O-])CCN(C(CCC(=O)N3CCN(N)CC3)C(=O)[O-])CCN(CC(=O)[O-])CC2)CC1.[Gd+3] (stereo not drawn) [Gd-10, trans-1,7-Gd-(CHyd)2] |  |  | 7.2 | 6.7 | 3.5 | lack of de-chelation or formation of Gd-containing metabolites | 28.1 | 3 |  |  | 
CN(C)C(CCC(=O)NCCCN1CCN(CC(=O)[O-])Cc2cccc(n2)CN(CC(=O)[O-])CC1)C(=O)O.[Mn+2] (stereo not shown) [Mn-18] | 0.4 ± 0.3 | 0.4 ± 0.3 |  |  |  |  |  |  |  |  | 
NN1CCN(C(=O)CCC(C(=O)[O-])N2CCN(CC(=O)[O-])CCN(CC(=O)[O-])CCN(C(CCC(=O)N3CCN(N)CC3)C(=O)[O-])CC2)CC1.[Gd+3] (stereo not drawn) [Gd-9, cis-1,4-Gd-(CHyd)2] |  |  | 7.8 | 6.6 | 3.6 | lack of de-chelation or formation of Gd-containing metabolites | 39.2 | 6 | 600 | 1.5 | 50
